Laboratory results reported in paper PMC2855122 (Journal of immunology (Baltimore, Md. : 1950), 2009).

Tested on: HeLa-Kb-A3-47 cells
Experiment: Cell-surface HLA-A3 level after transfection with ER targeted precursors
Format: cell-based
Conditions: GAP-A3 staining (Figure 7B)

RVCEKMALY [R-Y]
Surface expression of HLA-A3 after ER targeted peptide: increased the surface expression of HLA-A3
